Assay results from BindingDB's records for patent US11365204 (Union therapeutics A/S, 2022).

Molecular target: Tumor necrosis factor (Homo sapiens, UniProt P01375)
Assay: TNF-alpha RELEASE
Protocol: Human peripheral blood mononuclear cells (PBMC) were isolated from fresh buffy coats by density centrifugation using lymphoprep tubes (Medinor). Frozen PBMC's were washed in serum free assay buffer (RPMI1640 with 25 mM HEPES, 1% pen/strep, […], 0.5% human serum albumin) and living cells counted. Lipopolysaccharide (1 microg/ml; SIGMA) was added to the cells which were then transferred to 384 well tissue culture plates (5×105 c/ml) containing titrated test compounds. The cells were incubated for 18 hours at 37° C. in serum free assay buffer and the level of TNFalpha in the supernatant was quantitated by AlphaLISA (PerkinElmer) by measuring fluorescence intensity at 615 nm.Results were expressed as IC50 values calculated from inhibition curves using as controls the secretion in LPS stimulated wells and the secretion in cells incubated with 10 microM of a PDE4 inhibitor reference compound.

Tumor necrosis factor, sequence (P01375 whole entry): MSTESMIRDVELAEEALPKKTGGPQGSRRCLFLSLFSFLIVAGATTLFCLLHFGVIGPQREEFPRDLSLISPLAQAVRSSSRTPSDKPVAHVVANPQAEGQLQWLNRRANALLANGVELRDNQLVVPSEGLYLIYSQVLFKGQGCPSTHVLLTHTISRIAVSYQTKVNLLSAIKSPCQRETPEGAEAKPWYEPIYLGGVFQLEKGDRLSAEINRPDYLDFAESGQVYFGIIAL

Q: For `CC(=O)N1CCC(Nc2nc(N3CC(OC(=O)c4cscn4)C3)nc3c2[S+]([O-])CC3)CC1` (centres undefined) [US11365204, Example 76], which IC50 is on record?
A: > 500 nM

Q: With `CC(=O)N1CC[C@H](Nc2nc(N3CC(OC(=O)C4CCOCC4)C3)nc3c2[S@+]([O-])CC3)C1` [US11365204, Example 74] as the compound, how does the IC50 read?
A: 300 nM

Q: How did the IC50 turn out when `CC(=O)N1CC[C@H](Nc2nc(N3CC(OC(=O)c4cscn4)C3)nc3c2[S@+]([O-])CC3)C1` [US11365204, Example 73] was run?
A: 300 nM

Q: For `CC(=O)N1CC[C@H](Nc2nc(N3CC(OC(=O)c4cnsc4)C3)nc3c2[S@+]([O-])CC3)C1` [US11365204, Example 72], which IC50 is on record?
A: < 100 nM
